Data taken from patent US8044056B2, “Adenine compound” (priority 2007, dated 2011).

Target: T1, Human TLR7 (Homo sapiens, UniProt Q9NYK1)
T1 construct: expressed in transfected cells; host or cells: HEK293 (hTLR7/seap-293)
T1 sequence (Q9NYK1 27-1049): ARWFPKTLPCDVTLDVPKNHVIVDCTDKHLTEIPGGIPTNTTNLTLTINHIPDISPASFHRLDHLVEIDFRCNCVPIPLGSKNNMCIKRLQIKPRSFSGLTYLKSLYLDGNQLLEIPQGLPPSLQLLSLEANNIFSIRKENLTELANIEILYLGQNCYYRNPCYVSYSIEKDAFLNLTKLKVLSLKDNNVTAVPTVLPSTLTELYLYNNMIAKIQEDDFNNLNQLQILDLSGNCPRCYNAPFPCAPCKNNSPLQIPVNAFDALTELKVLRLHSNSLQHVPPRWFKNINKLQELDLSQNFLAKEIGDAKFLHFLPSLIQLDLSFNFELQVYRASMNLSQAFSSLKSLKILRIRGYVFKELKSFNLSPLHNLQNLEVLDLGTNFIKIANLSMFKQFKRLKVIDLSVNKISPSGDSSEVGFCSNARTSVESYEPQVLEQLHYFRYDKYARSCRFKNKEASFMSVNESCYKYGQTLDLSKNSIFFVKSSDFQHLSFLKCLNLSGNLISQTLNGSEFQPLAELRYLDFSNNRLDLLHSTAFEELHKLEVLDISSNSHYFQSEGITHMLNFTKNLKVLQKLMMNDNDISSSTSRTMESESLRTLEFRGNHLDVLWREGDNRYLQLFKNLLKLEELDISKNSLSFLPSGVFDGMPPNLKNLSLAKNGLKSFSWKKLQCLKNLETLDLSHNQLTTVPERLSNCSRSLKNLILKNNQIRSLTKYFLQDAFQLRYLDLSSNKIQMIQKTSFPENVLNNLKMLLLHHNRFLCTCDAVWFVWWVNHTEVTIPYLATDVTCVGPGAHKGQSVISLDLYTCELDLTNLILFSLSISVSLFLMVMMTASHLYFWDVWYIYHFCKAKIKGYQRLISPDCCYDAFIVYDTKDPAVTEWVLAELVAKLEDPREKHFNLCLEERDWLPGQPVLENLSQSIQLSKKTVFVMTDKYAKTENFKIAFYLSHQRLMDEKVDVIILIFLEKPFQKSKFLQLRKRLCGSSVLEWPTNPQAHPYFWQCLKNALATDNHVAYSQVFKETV
Test: Human TLR7 reporter assay (NF-kB-SEAP)
Assay type: cell-based
Conditions: HEK293 cells stably carrying human TLR7 plasmid and NF-kB-SEAP reporter; 20 hours incubation; 1 nM-10 μM; absorbance 405 nm; read-out: Human TLR7 binding activity (pEC50) (converted)
Procedure: Human TLR7 or rat TLR7 plasmid and a reporter plasmid (NF-kB-SEAP) stably-induced HEK293 cells were suspended in DMEM media (10% FBS, 1% NEAA, 10 μg/mL blastocidin S HCl, 100 ug/mL Zeocin), and the suspension was seeded on a 96-well plate in an amount of 90 μl/well (hTLR7/seap-293: 20000 cells/well, rTLR7/seap-293: 25000 cells/well).
To the cells seeded on the 96-well plate was added a test compound wherein DMSO stock solution (2 μl) was hundredfold diluted with medium (200 μl) in an amount of 10 μl/well (final concentration; 1 nM-10 μM, common ratio 3). The mixture was stirred by tapping in the side of the plate, and then incubated for 20 hours in a CO2 incubator. To the cells stimulated by a test compound was added a substrate for reporter assay (substrate for SEAP, pNPP) in an amount of 50 μl/well. Ten minutes after the addition of the substrate, a quenching solution (4N NaOH) was added in an amount of 50 μl/well, and the enzymatic reaction was quenched. Top seal A was attached on the plate, and the absorbance was measured by microplate reader (405 nm).

| SMILES | EC50 [nM] |
| --- | --- |
| CCCCOc1nc(N)c2[nH]c(=O)n(CCCN3CCN(C/C=C/c4ccccc4)CC3)c2n1 [Example 4, 2-Butoxy-9-(3-[4-cinnamylpiperazin-1-yl]propyl)-7,8-dihydro-8-oxoadenine] | 794 |
| CCCCOc1nc(N)c2[nH]c(=O)n(CCCCCCCN3CCN(c4ccc(C(C)=O)cc4)CC3)c2n1 [Example 5, 9-(7-[4-(4-Acetylphenyl)piperazin-1-yl]heptyl-2-butoxy-7,8-dihydro)-8-oxoadenine] | 158 |
| CCCCOc1nc(N)c2[nH]c(=O)n(CCCCCCCN3CCN(c4ccncc4)CC3)c2n1 [Example 6, 2-Butoxy-7,8-dihydro-9-(7-[4-(4-pyridyl)piperazin-1-yl]heptyl)-8-oxoadenine] | 31.6 |
| CCCCOc1nc(N)c2[nH]c(=O)n(CCCCCCCN3CCC(Oc4ccc(Cl)cc4C)CC3)c2n1 [Example 7, 2-Butoxy-9-(7-[4-(4-chloro-2-methylphenoxy)piperidin-1-yl]heptyl)-7,8-dihydro-8-oxoadenine] | 631 |
| CCCCOc1nc(N)c2[nH]c(=O)n(CCCCCCCN3CCN(c4ccc(OC)cc4)CC3)c2n1 [Example 8, 2-Butoxy-7,8-dihydro-9-(7-[4-(4-methoxyphenyl)piperazin-1-yl]heptyl)-8-oxoadenine] | 251 |
